Read-outs that look alike come from different tables or passages of the source.
What was measured:
Type in all cases: cell-based
[1] = test system: MDA-MB-415 human breast cancer cells; assay: Single agent growth inhibition (Cell Titer-Glo proliferation); conditions: 144 hours
Description: (§1) The growth inhibitory activities of two test agents, eribulin and entinostat, were determined alone and in combination against 12 human breast cancer cell lines (Table 1). The human breast tumor cell lines were selected based on their profile characteristics of being either human epidermal growth factor receptor 2 negative (Her2') and estrogen receptor positive (ER^+) or Triple Negative (Her2^-, ER^-, and progesterone receptor negative [PR^-]). Activities of individual agents were determined by curve-fitting the concentration of agent that inhibits cell growth by 50% compared to the control cells in a four parameter-logistic equation, whereas agent combinations were determined by the method of (Chou and […] Advances in Enzyme Regulation 22:27-55, 1984), and analyzed with CalcuSyn software. Fa, the fraction of affected drug targets at a given drug concentration, was calculated from the fractional decrease. Each agent was tested individually to determine the median-effect dose, Dm, (or EC50, the 50% effect concentration). For combination treatments, drug solutions were mixed at ratios providing approximately equipotent concentrations based upon relative Dm, and this mixture was serially diluted to yield test concentrations. The Combination Index (CI), computed from ratios of the concentrations of mixed and unmixed drugs that produce the same Fa, indicates whether inhibition is additive, synergistic, or antagonistic. In whole-cell assays, inhibitor interactions are complex (mixed), rather than mutually exclusive (purely competitive) or nonexclusive (purely non-competitive), CI values for both types of inhibition are reported to define the range of possible values. […] Finally, in Experiment 3, we determined the antiproliferative activity of the study agents in combination against the panel of human tumor cell lines. […] We further analyzed quadruplicate samples over a seven point dose response range. MCF-7 human breast cancer cells were cultured in RPMI 1640 medium supplemented with 10% fetal bovine serum (FBS), 2 mM glutamine, 10 mM 4-(2-hydroxyethyl)-1-piperazineethanesulfonic acid (HEPES), 0.075% sodium bicarbonate, 100 units/mL sodium penicillin G, 100 μg/mL streptomycin sulfate and 25 μg/mL gentamicin. T-47D human breast cancer cells were cultured in RPMI 1640 medium supplemented with 10% FES. 4.5 g/L glucose. 2 mM glutamine. 10 mM HEPES, 0.2 units/mL Insulin, 1 mM sodium pyruvate, 100 units/mL sodium penicillin G, 100 streptomycin sulfate and 25 μg/mL gentamicin, ZR-75-1 human breast cancer cells were cultured in RPMI 1640 medium supplemented with 10% FBS, 4.5 g/L. glucose, 2 mM glutamine, 10 […] HEPES, 1 mM sodium pyruvate, 100 units/mL sodium penicillin G, 100 μg/mL streptomycin sulfate and 25 μg/mL gentamicin. […] HCC70 human breast cancer cells were cultured in RPMI1640 medium supplemented with 10% FBS, 2 mM glutamine, 4.5 g/L glucose, 10 mM HEPES, 0.075% sodium bicarbonate, 1 mM sodium pyruvate, 100 units/mL sodium penicillin 0, 100 μg/mL streptomycin sulfate and 25 μg/mL gentamicin. […] The tumor cells were cultured in tissue culture flasks in a humidified incubator at 37° C., in an atmosphere of 5% CO2 and 95% air; except for the MDA-MB-134-VI, MDA-MB-175-VII, MDA-MB-415, and MDA-MB-436, these cells were cultured at 37° C. in 100% air and no additional CO2. The selected human tumor cells were seeded at 2,000-5,000 cells/well in a clear polystyrene 96-well microculture plate (Corning® Costar® 96-well flat bottom plate, Cat. No. 3997) in a total volume of 90 μL per well. After 24 hours of incubation in a humidified incubator at 37° C. with 5% CO2 and 95% air (except for the MDA-MB-134-VI, MDA-MB-175-VII, MDA-MB-415, and MDA-MB-436, these cells were cultured at 37° C. in 100% air, no additional CO2), 10 μL of the 10× drug prep was added. […]

[2] = test system: T-47D human breast cancer cells; assay: as above; conditions: T47D, 72 hours
Description: as §1

[3] = test system: Hs578t human breast cancer cells; assay: as above; conditions: Hs-578T, 72 hours
Description: as §1

[4] = test system: MDA-MB-175VII human breast cancer cells; assay: as above; conditions: 144 hours
Description: as §1

[5] = test system: HCC1806 human breast cancer cells; assay: as above; conditions: 72 hours
Description: as §1

[6] = test system: MDA-MB-436 human adenocarcinoma derived cancer cells; assay: as above; conditions: 144 hours
Description: as §1

[7] = test system: MDA-MB-134VI human breast cancer cells; assay: as above; conditions: 144 hours
Description: as §1

[8] = test system: BT-549 human breast cancer cells; assay: as above; conditions: 72 hours
Description: as §1

[9] = test system: ZR-75-1 human breast cancer cells; assay: as above; conditions: Experiment 2, narrow concentration range, 72 hours
Description: as §1

[10] = test system: HCC70 human breast cancer cells; assay: as above; conditions: 72 hours
Description: as §1

[11] = test system: MCF-7 human breast cancer cells; assay: as above; conditions: 72 hours
Description: as §1

[12] = test system: MDA-MB-231 human breast cancer cells; assay: as above; conditions: 72 hours
Description: as §1

[13] = test system: panel of 12 human breast cancer cell lines; assay: Single agent inhibitory activity across the cell line panel; conditions: all 12 cell lines, Experiments 1 and 2
Description: The growth inhibitory activities of two test agents, eribulin and entinostat, were determined alone and in combination against 12 human breast cancer cell lines (Table 1). The human breast tumor cell lines were selected based on their profile characteristics of being either human epidermal growth factor receptor 2 negative (Her2') and estrogen receptor positive (ER^+) or Triple Negative (Her2^-, ER^-, and progesterone receptor negative [PR^-]). Activities of individual agents were determined by curve-fitting the concentration of agent that inhibits cell growth by 50% compared to the control cells in a four parameter-logistic equation, whereas agent combinations were determined by the method of (Chou and […] Advances in Enzyme Regulation 22:27-55, 1984), and analyzed with CalcuSyn software. Fa, the fraction of affected drug targets at a given drug concentration, was calculated from the fractional decrease. […] Finally, in Experiment 3, we determined the antiproliferative activity of the study agents in combination against the panel of human tumor cell lines. […] We further analyzed quadruplicate samples over a seven point dose response range. […] The medium/Cell Titer-Glo® reagent was transferred to a white polystyrene 96-well microculture plate (Corning® Costar® 96-well flat bottom plate, Cat. No. 3917) before determining luminescence on the Tecan GENios microplate. […]

[14] = Experiment 1, wide concentration range, read-out: Wide range IC50
[15] = Experiment 2, narrow concentration range, read-out: Narrow range IC50
[16] = MCF7, Experiment 1, wide concentration range, read-out: Wide range IC50
[17] = MCF7, Experiment 2, narrow concentration range, read-out: Narrow range IC50

IC50 [1, 14] [nM]	IC50 [1, 15] [nM]	IC50 [2, 15] [nM]	IC50 [3, 14] [nM]	IC50 [3, 15] [nM]	IC50 [4, 14] [nM]	IC50 [4, 15] [nM]	IC50 [5, 14] [nM]	IC50 [5, 15] [nM]	IC50 [6, 14] [nM]	IC50 [6, 15] [nM]	IC50 [7, 14] [nM]	IC50 [7, 15] [nM]	IC50 [8, 14] [nM]	IC50 [8, 15] [nM]	IC50 [11, 16] [nM]	IC50 [11, 17] [nM]	IC50 [12, 14] [nM]	IC50 [12, 15] [nM]	SMILES	IC50 [10, 14] [nM]	further results
92.1	140	1780	1100	1400	210	1170	550	1220	810	1370	390	800	1250	1500	540	570	610	940	Nc1ccccc1NC(=O)c1ccc(CNC(=O)OCc2cccnc2)cc1 [entinostat, pyridin-3-yl methyl N-[[4-[(2-aminophenyl)carbarnoyl]phenyl]methyl carbamate]	1450	IC50 [2, 14]: 1600 nM; IC50 [9]: 4950 nM; IC50 [10, 15]: 1110 nM
0.64	0.57	1.15	0.39	0.67	0.55	1.09	0.25	0.3	2.82	3.2	0.62	0.88	0.23	0.39	0.22	0.37	0.26	0.52	C=C1C[C@@H]2CC[C@@]34C[C@H]5O[C@H]6[C@@H](O3)[C@H]3O[C@H](CC[C@@H]3O[C@H]6[C@H]5O4)CC(=O)C[C@@H]3[C@@H](OC)[C@@H](C[C@H](O)CN)O[C@H]3C[C@H]3O[C@@H](CC[C@@H]1O2)C[C@@H](C)C3=C [eribulin]	0.35	Relative potency of single agents [13]: more potent than entinostat in all cell lines
